Marks after values point to notes of the source that are not given here.
Key:
[1] = test system: normal human dermal fibroblasts (NHDF); test: Mitochondria content of NHDF, Mito-ID Green Detection Kit; format: cell-based
Procedure: (§1) The effect of compound (I-1) on mitochondria biosynthesis was investigated in normal human dermal fibroblasts (NHDF). NHDF were obtained from PromoCell (Lot No. 006151; donor; from eyelid skin) and cultivated in Fibroblast Growth Medium (PromoCell; Cat. No. C-023020) supplemented with Supplement Mix (PromoCell; Cat. No. C-039215) at 37 °C /5% CO2. NHDF were seeded in flat-bottom 96-well plates (5000 cells / well) and incubated in said medium for 24 h or 48 h, respectively, with the compounds present in concentrations ranging from 0.03 µM to 200 µM. Mitochondria content was analyzed using the Mito-ID® Green Detection Kit for fluorescence microscopy (Enzo Life Sciences; Cat. No. ENZ-51055-K500). Fluorometric analysis was done using a Spectramax plate reader (Molecular Devices) and following the manufacturer's protocol. Cytotoxicity was determined in parallel by fluorometric readout using the Resazurin Based In Vitro Toxicology Assay Kit (Sigma Aldrich, Cat. No. TOX-8), and following the manufacturer's protocol.

[2] = test system: 5'-AMP-activated protein kinase (AMPK); test: Western blot analysis of AMPK phosphorylation in NHEK; format: cell-based, human; details: 48 h;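 on P-AMPK: Chemiluminescence band density of P-AMPK measured with Multigauge software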
Sirt3 = target: T1, Sirt3 (Homo sapiens, UniProt Q9NTG7); test: SIRT3 Fluorimetric Drug Discovery Kit, Sirt3 activation; format: biochemical
T1 construct: purchased BioMol, Hamburg, Germany
T1 sequence (Q9NTG7 1-399): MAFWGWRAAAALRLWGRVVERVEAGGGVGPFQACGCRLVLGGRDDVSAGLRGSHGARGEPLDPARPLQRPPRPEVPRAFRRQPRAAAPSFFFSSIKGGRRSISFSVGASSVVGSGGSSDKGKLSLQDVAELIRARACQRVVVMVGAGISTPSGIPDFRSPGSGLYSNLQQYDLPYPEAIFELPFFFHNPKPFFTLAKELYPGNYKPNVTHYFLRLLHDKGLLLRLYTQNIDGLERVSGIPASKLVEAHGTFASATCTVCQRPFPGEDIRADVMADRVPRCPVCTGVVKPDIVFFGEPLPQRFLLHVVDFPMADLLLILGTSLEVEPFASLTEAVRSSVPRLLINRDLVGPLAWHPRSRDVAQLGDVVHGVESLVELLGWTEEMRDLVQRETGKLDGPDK

Sirt2 = target: T2, Sirt2 (Homo sapiens, UniProt Q8IXJ6); test: SIRT2 Fluorimetric Drug Discovery Kit, Sirt2 activation; format: biochemical
T2 construct: purchased BioMol, Hamburg, Germany
T2 sequence (Q8IXJ6 1-389): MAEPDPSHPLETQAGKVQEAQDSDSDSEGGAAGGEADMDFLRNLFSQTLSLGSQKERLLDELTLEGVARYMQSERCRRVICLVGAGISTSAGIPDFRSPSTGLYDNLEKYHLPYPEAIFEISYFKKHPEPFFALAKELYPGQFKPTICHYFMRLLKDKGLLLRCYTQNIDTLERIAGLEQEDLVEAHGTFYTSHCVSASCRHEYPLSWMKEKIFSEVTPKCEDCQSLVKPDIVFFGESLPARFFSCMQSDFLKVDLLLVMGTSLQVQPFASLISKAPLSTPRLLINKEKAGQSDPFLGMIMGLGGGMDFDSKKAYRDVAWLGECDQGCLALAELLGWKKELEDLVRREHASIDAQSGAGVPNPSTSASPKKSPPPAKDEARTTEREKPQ

[3] = test system: normal human dermal fibroblasts (NHDF); test: Resazurin based cytotoxicity assay in NHDF; format: cell-based; details: 24 h and 48 h, 0.03 µM to 200 µM
Procedure: as §1

[4] = Experiment 1, Membrane 1, 10 µM
[5] = Experiment 1, Membrane 1, 30 µM

In the case of `CCOC(=O)c1c(O)cccc1/C=C/c1ccc(OCC)cc1` [(I-1)], the “Signal intensity [% Control]” value ([1]; 24 h incubation time, 0.03 µM) is reported as 100 % Control, the “Signal intensity [% Control]” value ([1]; 24 h incubation time, 0.09 µM) is reported as 99 % Control and the “Signal intensity [% Control]” value ([1]; 24 h incubation time, 0.27 µM) is reported as 100 % Control. For the same compound, the “Signal intensity [% Control]” value ([1]; 24 h incubation time, 0.82 µM) was 101 % Control, the “Signal intensity [% Control]” value ([1]; 24 h incubation time, 2.47 µM) was 103 % Control and the “Signal intensity [% Control]” value ([1]; 24 h incubation time, 7.41 µM) was 114 % Control. For the same compound, the “Signal intensity [% Control]” value ([1]; 24 h incubation time, 22.22 µM) was 182 % Control, the “Signal intensity [% Control]” value ([1]; 24 h incubation time, 66.67 µM) was 354 % Control and the “Signal intensity [% Control]” value ([1]; 24 h incubation time, 200.00 µM) was 906 % Control. The “Signal intensity [% Control]” value ([1]; 48 h incubation time, 0.03 µM) was 97 % Control, the “Signal intensity [% Control]” value ([1]; 48 h incubation time, 0.09 µM) was 92 % Control and the “Signal intensity [% Control]” value ([1]; 48 h incubation time, 0.27 µM) was 91 % Control. The “Signal intensity [% Control]” value ([1]; 48 h incubation time, 0.82 µM) was 93 % Control, the “Signal intensity [% Control]” value ([1]; 48 h incubation time, 2.47 µM) was 94 % Control and the “Signal intensity [% Control]” value ([1]; 48 h incubation time, 7.41 µM) was 103 % Control. The “Signal intensity [% Control]” value ([1]; 48 h incubation time, 22.22 µM) was 147 % Control, the “Signal intensity [% Control]” value ([1]; 48 h incubation time, 66.67 µM) was 293 % Control and the “Signal intensity [% Control]” value ([1]; 48 h incubation time, 200.00 µM) was 765 % Control. For the same compound, the “concentrations with significant enhancement of mitochondria biosynthesis” value ([1]; NHDF, 24 h and 48 h) was ≥ 10 µM, the “AMPK phosphorylation [% Control]” value ([2]; Experiment 1, Membrane 1, 3 µM) was 60 % Control and the P-AMPK ([2]; Experiment 1, Membrane 1, 3 µM) was 123 AU/mm^2. For the same compound, the “Ratio P-AMPK/ GAPDH” value ([2]; Experiment 1, Membrane 1, 3 µM) was 0.26, the “AMPK phosphorylation [% Control]” value [2, 4] was 90 % Control and the P-AMPK [2, 4] was 202 AU/mm^2. For the same compound, the “Ratio P-AMPK/ GAPDH” value [2, 4] was 0.38, the “AMPK phosphorylation [% Control]” value [2, 5] was 1006 % Control and the P-AMPK [2, 5] was 2554 AU/mm^2. The “Ratio P-AMPK/ GAPDH” value [2, 5] was 4.26, the remaining activity at 0.3 µM (Sirt3; Example 2, Table 5, 0.3 µM, read-out: Activity [% control]) was 109% and the remaining activity at 1 µM (Sirt3; Example 2, Table 5, 1.0 µM, read-out: Activity [% control]) was 124%. The remaining activity at 3 µM (Sirt3; Example 2, Table 5, 3.0 µM, read-out: Activity [% control]) was 156%, the remaining activity at 10 µM (Sirt3; Example 2, Table 5, 10.0 µM, read-out: Activity [% control]) was 216% and the remaining activity at 30 µM (Sirt3; Example 2, Table 5, 30.0 µM, read-out: Activity [% control]) was 247%. The EC300 (Sirt3; Example 2, Table 6, Sirt3, footnote for (I-1): clear activation in dose-response curve visible) was >30* µM, the remaining activity at 0.3 µM (Sirt2; Example 2, Table 4, 0.3 µM, read-out: Activity [% control]) was 114% and the remaining activity at 1 µM (Sirt2; Example 2, Table 4, 1.0 µM, read-out: Activity [% control]) was 142%. For the same compound, the remaining activity at 3 µM (Sirt2; Example 2, Table 4, 3.0 µM, read-out: Activity [% control]) was 204%, the remaining activity at 10 µM (Sirt2; Example 2, Table 4, 10.0 µM, read-out: Activity [% control]) was 530% and the remaining activity at 30 µM (Sirt2; Example 2, Table 4, 30.0 µM, read-out: Activity [% control]) was 914%. For the same compound, the EC300 (Sirt2; Example 2, Table 6, Sirt2) was 4.9 µM and the “cytotoxicity or loss of cell viability” value [3] was “no cytotoxicity or loss of cell viability”.

From EP2801357A1, “Carboxylated stilbenes for activating AMPK and sirtuins” (IMD Natural Solutions GmbH, priority 2013, dated 2014)
